In US20210171568A1, “CRYSTALLINE FORMS OF SELECTIVE PROGESTERONE RECEPTOR MODULATOR, PROCESSES FOR PREPARATION THEREOF” (Crystal Pharmaceutical (Suzhou) Co., Ltd., priority 2017, published 2021):
“Also recorded” adds a separate entry of the source. Read-outs that look alike come from different tables or passages of the source.

Tests used:
Type in all cases: physicochemical
[1] = Hygroscopicity by dynamic vapor sorption (DVS); details: for Weight gain under 80% Relative Humidity (Hygroscopicity): DVS, 25° C., 80% RH, about 10 mg of sample; for hygroscopicity as share of that of the prior art solid: relative to prior art solid, weight gain at 80% RH
Description: Dynamic Vapor Sorption (DVS) was collected via an SMS (Surface Measurement Systems Ltd.) intrinsic DVS instrument. Its control software is DVS-Intrinsic control software, and its analysis software is DVS-Intrinsic Analysis software. Typical Parameters for DVS test are as follows: • Temperature: 25° C. • Gas and flow rate: N2, 200 mL/min • dm/dt: 0.002%/min • RH range: 0% RH to 95% RH
Dynamic vapor sorption (DVS) was applied to test hygroscopicity of Form CS2, Form CS4 and the prior art amorphous with about 10 mg of samples.

[2] = Physical stability on storage (crystalline form by XRPD before and after storage)
Description: (§1) Samples of Form CS2, Form CS4 and the prior art amorphous were stored under condition of 25° C./60% RH (open). Crystalline form and chemical impurity were tested.
(§2) Samples of Form CS2, Form CS4 and the prior art amorphous were stored under condition of 40° C./75% RH (open). Crystalline form and chemical impurity were tested.
(§3) Samples of Form CS2, Form CS4 and the prior art amorphous were stored under condition of 60° C./75% RH (open). Crystalline form and chemical impurity were tested.

[3] = Chemical stability on storage (purity / chemical impurity); details: for Change of Purity: versus initial purity
Description: as §1, §2, §3

Residual solvents test = test: Residual solvents test
Description: Residual solvents of Form CS2, Form CS4 and the prior art amorphous were tested. […] According to the guideline of the International Council for Harmonization (ICH) on residual solvents, dichloromethane belongs to Class 2 solvents, and the residual solvent content must not exceed 600 ppm. It can be seen that the residue of dichloromethane in the amorphous solid is much higher than the limits of ICH guideline, and the amorphous not suitable for use as drug substance.

[4] = Particle size distribution; details: in Isopar G containing 0.2% lecithin
Description: Form CS2 and Form CS4 of the present disclosure were added into 10 mL of Isopar G (containing 0.2% lecithin). The mixture was mixed thoroughly and transferred into the SDC. The measurement was started when the sample amount indicator is in appropriate position. The average particle diameter calculated by volume, the diameter at which 10% mass is comprised of smaller particles, the diameter at which 50% mass is comprised of smaller particles and the diameter at which 90% mass is comprised of smaller particles were obtained in particle size distribution test. Subsequently, the particle size distribution plot of crystalline forms was obtained.
MV: Average particle diameter calculated by volume.
D10: the size in microns below which 10 percent of the particles reside on a volume basis.
D50: the size in microns below which 50 percent of the particles reside on a volume basis, also known as the median diameter.
D90: the size in microns below which 90 percent of the particles reside on a volume basis.

[5] = 60° C./75% RH (open), 2 weeks, listed as prior art amorphous

| SMILES | Weight gain under 80% Relative Humidity (Hygroscopicity) [1] [%] | hygroscopicity as share of that of the prior art solid [1] | Solid Form after Storage ([2]; 25° C./60% RH (open), 6 months) | Solid Form after Storage ([2]; 40° C./75% RH (open), 6 months) | Solid Form after Storage ([2]; 60° C./75% RH (open), 2 weeks) | Purity after 6 Months ([3]; 25° C./60% RH (open), 6 months) [%] | Change of Purity ([3]; 25° C./60% RH (open), 6 months) [%] | Purity after 3 Months ([3]; 40° C./75% RH (open), 3 months) [%] | Change of Purity ([3]; 40° C./75% RH (open), 3 months) [%] | Purity after 2 Weeks ([3]; 60° C./75% RH (open), 2 weeks) [%] | Change of Purity ([3]; 60° C./75% RH (open), 2 weeks) [%] | Residual solvents (in words) (Residual solvents test) | D10 [4] [μm] | D50 [4] [μm] | D90 [4] [μm] | MV, average particle diameter calculated by volume [4] [μm] | further results |
| --- | --- | --- | --- | --- | --- | --- | --- | --- | --- | --- | --- | --- | --- | --- | --- | --- | --- |
| C[C@]12C[C@H](c3ccc(S(C)(=O)=O)cc3)C3=C4CCC(=O)C=C4CC[C@H]3[C@@H]1CC[C@@]2(O)C(F)(F)C(F)(F)F [Form CS4, (11β, 17β)-17-hydroxy-11-[4-(methylsulfonyl)phenyl]-17-(pentafluoroethyl)estra-4,9-diene-3-one] | 0.12 | less than 10% | remain unchanged; also recorded: Form CS4 | remain unchanged; also recorded: Form CS4 | remain unchanged; also recorded: Form CS4 | 99.31 | 0.13 | 99.42 | 0.02 | 99.47 | 0.03 | almost no residual solvent | 2.32 | 6.20 | 23.12 | 11.41 | Change of Purity ([3]; 25° C./60% RH (open), 6 months, listed as CS4): 0.13%; Change of Purity ([3]; 40° C./75% RH (open), 3 months, listed as CS4): 0.02%; Change of Purity ([3]; 60° C./75% RH (open), 2 weeks, listed as CS4): 0.03% |
| C[C@]12C[C@H](c3ccc(S(C)(=O)=O)cc3)C3=C4CCC(=O)C=C4CC[C@H]3[C@@H]1CC[C@@]2(O)C(F)(F)C(F)(F)F [Amorphous, (11β, 17β)-17-hydroxy-11-[4-(methylsulfonyl)phenyl]-17-(pentafluoroethyl)estra-4,9-diene-3-one, reference compound] | 1.89 |  | Amorphous | Amorphous + Form CS2 | Amorphous + Form CS2 | 97.88 | 0.80 | 97.60 | 1.08 | 97.70 | 0.98 | significantly higher than specification |  |  |  |  | Weight gain under 80% Relative Humidity (Hygroscopicity) ([1]; listed as prior art solids): up to 1.89%; Solid Form after Storage ([2]; 40° C./75% RH (open), 6 months, listed as prior art amorphous): partially converted to Form CS2; Solid Form after Storage ([2]; 40° C./75% RH (open), 6 months, listed as prior art solid): partially converts to Form CS2; Solid Form after Storage [2, 5]: partially converted to Form CS2; Solid Form after Storage ([2]; 60° C./75% RH (open), 2 weeks, listed as prior art solid): partially converts to Form CS2; Change of Purity ([3]; 25° C./60% RH (open), 6 months, listed as amorphous): 0.80%; Change of Purity ([3]; 25° C./60% RH (open), 6 months, listed as prior art amorphous): 0.80%; stability on storage (in words) ([3]; 25° C./60% RH, 40° C./75% RH and 60° C./75% RH): unstable; Change of Purity ([3]; 40° C./75% RH (open), 3 months, listed as amorphous): 1.08%; Change of Purity ([3]; 40° C./75% RH (open), 3 months, listed as prior art amorphous): 1.08%; Change of Purity ([3]; 60° C./75% RH (open), 2 weeks, listed as amorphous): 0.98%; Change of Purity [3, 5]: 0.98%; dichloromethane residue (Residual solvents test; ICH limit 600 ppm): 64185 ppm; Residual solvents (in words) (Residual solvents test; listed as prior art): exceeds the standard |
| C[C@]12C[C@H](c3ccc(S(C)(=O)=O)cc3)C3=C4CCC(=O)C=C4CC[C@H]3[C@@H]1CC[C@@]2(O)C(F)(F)C(F)(F)F [Form CS2, (11β, 17β)-17-hydroxy-11-[4-(methylsulfonyl)phenyl]-17-(pentafluoroethyl)estra-4,9-diene-3-one] | 0.23 | less than 15% | remain unchanged; also recorded: Form CS2 | remain unchanged; also recorded: Form CS2 | remain unchanged; also recorded: Form CS2 | 98.58 | 0.06 | 98.37 | 0.27 | 98.59 | 0.05 | almost no residual solvent | 3.09 | 8.41 | 27.45 | 13.16 | Change of Purity ([3]; 25° C./60% RH (open), 6 months, listed as CS2): 0.06%; Change of Purity ([3]; 40° C./75% RH (open), 3 months, listed as CS2): 0.27%; Change of Purity ([3]; 60° C./75% RH (open), 2 weeks, listed as CS2): 0.05% |
